Measured values from patent US20190343846A1, “PREPARATION OF SOLID CYCLODEXTRIN COMPLEXES FOR OPHTHALMIC ACTIVE PHARMACEUTICAL INGREDIENT DELIVERY” (OCULIS SA, priority 2016, published 2019).
Converted amounts (≈) assume the structure as drawn.

Columns and labels:
[1] = Solubility of kinase inhibitors in pure water (S0) from phase-solubility profiles; assay type: physicochemical; details: for solubility: 25 °C, water, thermodynamic from solid, read-out: S0 (mg/mL), solubility in pure water
Description: (§1) Kinase inhibitors were suspended in aqueous solutions containing from 1% (w/v) to 15% (w/v) γ-cyclodextrin.

[2] = Stability constant (K1:1) of active pharmaceutical ingredient/γ-cyclodextrin complexes from phase-solubility profiles; assay type: physicochemical; details: initial linear part of phase-solubility profile
Description: as §1

[3] = 25° C.; cited from earlier work
[4] = Solubility of kinase inhibitors in aqueous γ-cyclodextrin media; assay type: physicochemical; details: aqueous with cosolvent or surfactant or cyclodextrin, thermodynamic from solid
Experimental: Kinase inhibitors were suspended in aqueous media consisting of pure water, aqueous γ-cyclodextrin solution, aqueous solution containing γ-cyclodextrin and tyloxapol (1% w/v), and aqueous eye drop medium containing γ-cyclodextrin, benzalkonium chloride (0.02% w/v), disodium edetate (0.10% w/v) and sodium chloride (0.05% w/v). The concentration of γ-cyclodextrin varied depending on the kinase inhibitor. The solubility was determined as described in Example 10.

[5] = aqueous eye drop medium with 4% w/v γ-cyclodextrin, eye drop medium: 4 % w/v γ-cyclodextrin, benzalkonium chloride 0.02%, disodium edetate 0.10%, sodium chloride 0.05%, read-out: Solubility (mg/mL) Eye drops
[6] = aqueous solution with 4 % w/v γ-cyclodextrin and tyloxapol (1% w/v), read-out: Solubility (mg/mL) Tyloxapol
[7] = aqueous γ-cyclodextrin solution, 4 % w/v γ-cyclodextrin, read-out: Solubility (mg/mL) γ-Cyclodextrin

CN1CCN(c2ccc3nc(-c4c(N)c5c(F)cccc5[nH]c4=O)[nH]c3c2)CC1 [Dovitinib]
S0 (mg/mL), solubility in pure water [1]: 0.006 mg/mL
K1:1 (M^−1), stability constant of drug/γ-cyclodextrin complex [2]: 680 M⁻¹

OC[C@H]1O[C@@H]2O[C@H]3[C@H](O)[C@@H](O)[C@@H](O[C@H]4[C@H](O)[C@@H](O)[C@@H](O[C@H]5[C@H](O)[C@@H](O)[C@@H](O[C@H]6[C@H](O)[C@@H](O)[C@@H](O[C@H]7[C@H](O)[C@@H](O)[C@@H](O[C@H]8[C@H](O)[C@@H](O)[C@@H](O[C@H]9[C@H](O)[C@@H](O)[C@@H](O[C@H]1[C@H](O)[C@H]2O)O[C@@H]9CO)O[C@@H]8CO)O[C@@H]7CO)O[C@@H]6CO)O[C@@H]5CO)O[C@@H]4CO)O[C@@H]3CO [γ-cyclodextrin]
solubility in pure water [3]: 249200 ± 200 µg/mL (≈ 192000 µM)

CC1(C)CNc2cc(NC(=O)c3cccnc3NCc3ccncc3)ccc21 [Motesanib]
solubility [1]: 0.014 mg/mL (≈ 37.5 µM)
solubility ([4]; aqueous eye drop medium with 8% w/v γ-cyclodextrin, eye drop medium: 8 % w/v γ-cyclodextrin, benzalkonium chloride 0.02%, disodium edetate 0.10%, sodium chloride 0.05%, read-out: Solubility (mg/mL) Eye drops): 0.07 mg/mL (≈ 187 µM)
solubility ([4]; aqueous solution with 8 % w/v γ-cyclodextrin and tyloxapol (1% w/v), read-out: Solubility (mg/mL) Tyloxapol): 0.04 mg/mL (≈ 107 µM)
solubility ([4]; aqueous γ-cyclodextrin solution, 8 % w/v γ-cyclodextrin, read-out: Solubility (mg/mL) γ-Cyclodextrin): 0.09 mg/mL (≈ 241 µM)
K1:1 (M^−1), stability constant of drug/γ-cyclodextrin complex [2]: 140 M⁻¹

CNC(=O)c1cc(Oc2ccc(NC(=O)Nc3ccc(Cl)c(C(F)(F)F)c3)c(F)c2)ccn1 [Regorafenib]
solubility [1]: 0.0001 mg/mL (≈ 0.207 µM)
solubility [4, 5]: 0.0008 mg/mL (≈ 1.66 µM)
solubility [4, 6]: 0.005 mg/mL (≈ 10.4 µM)
solubility [4, 7]: 0.0005 mg/mL (≈ 1.04 µM)
K1:1 (M^−1), stability constant of drug/γ-cyclodextrin complex [2]: 94 M⁻¹

OC[C@H]1O[C@@H]2O[C@H]3[C@H](O)[C@@H](O)[C@@H](O[C@H]4[C@H](O)[C@@H](O)[C@@H](O[C@H]5[C@H](O)[C@@H](O)[C@@H](O[C@H]6[C@H](O)[C@@H](O)[C@@H](O[C@H]7[C@H](O)[C@@H](O)[C@@H](O[C@H]1[C@H](O)[C@H]2O)O[C@@H]7CO)O[C@@H]6CO)O[C@@H]5CO)O[C@@H]4CO)O[C@@H]3CO [α-cyclodextrin]
solubility in pure water [3]: 129500 ± 700 µg/mL (≈ 133000 µM)

COc1cc2c(Oc3ccc4[nH]c(C)cc4c3F)ncnc2cc1OCCCN1CCCC1 [Cediranib]
solubility [1]: 1.2 mg/mL (≈ 2660 µM)
solubility ([4]; aqueous eye drop medium with 12% w/v γ-cyclodextrin, eye drop medium: 12 % w/v γ-cyclodextrin, benzalkonium chloride 0.02%, disodium edetate 0.10%, sodium chloride 0.05%, read-out: Solubility (mg/mL) Eye drops): 4.1 mg/mL (≈ 9100 µM)
solubility ([4]; aqueous solution with 12 % w/v γ-cyclodextrin and tyloxapol (1% w/v), read-out: Solubility (mg/mL) Tyloxapol): 2.8 mg/mL (≈ 6220 µM)
solubility ([4]; aqueous γ-cyclodextrin solution, 12 % w/v γ-cyclodextrin, read-out: Solubility (mg/mL) γ-Cyclodextrin): 2 mg/mL (≈ 4440 µM)
K1:1 (M^−1), stability constant of drug/γ-cyclodextrin complex [2]: 23 M⁻¹

CNC(=O)c1ccccc1Sc1ccc2c(/C=C/c3ccccn3)n[nH]c2c1 [Axitinib]
solubility [1]: 0.0004 mg/mL (≈ 1.03 µM)
solubility [4, 5]: 0.007 mg/mL (≈ 18.1 µM)
solubility [4, 6]: 0.008 mg/mL (≈ 20.7 µM)
solubility [4, 7]: 0.003 mg/mL (≈ 7.76 µM)
K1:1 (M^−1), stability constant of drug/γ-cyclodextrin complex [2]: 260 M⁻¹

Cc1ccc(Nc2nccc(N(C)c3ccc4c(C)n(C)nc4c3)n2)cc1S(N)(=O)=O [Pazopanib]
solubility [1]: 0.0006 mg/mL (≈ 1.37 µM)
solubility ([4]; aqueous eye drop medium with 16% w/v γ-cyclodextrin, eye drop medium: 16 % w/v γ-cyclodextrin, benzalkonium chloride 0.02%, disodium edetate 0.10%, sodium chloride 0.05%, read-out: Solubility (mg/mL) Eye drops): 0.01 mg/mL (≈ 22.9 µM)
solubility ([4]; aqueous solution with 16 % w/v γ-cyclodextrin and tyloxapol (1% w/v), read-out: Solubility (mg/mL) Tyloxapol): 0.006 mg/mL (≈ 13.7 µM)
solubility ([4]; aqueous γ-cyclodextrin solution, 16 % w/v γ-cyclodextrin, read-out: Solubility (mg/mL) γ-Cyclodextrin): 0.007 mg/mL (≈ 16 µM)
K1:1 (M^−1), stability constant of drug/γ-cyclodextrin complex [2]: 13 M⁻¹
